Source: the NIST ThermoML archive (doi:10.1016/j.jct.2006.11.014)
± gives the expanded uncertainty stated by the source. Values belong to the molecule of their own block, whether it stands above or below them.

What was measured:
[1] = an = ratio of the nth substance listed; conditions: 298.15 K, 101 kPa, Liquid
[2] = cn = amount concentration of the nth substance listed, in mol/dm3; conditions: 298.15 K, 101 kPa, Liquid

Compound: O=C1CNC(=O)CN1 [2,5-diketopiperazine] + O
mass density ([1]; a1 = 0.0003): 997.17 ± 0.29 kg/m3 | mass density ([1]; a1 = 0.0007): 997.34 ± 0.29 kg/m3 | mass density ([1]; a1 = 0.0009): 997.37 ± 0.29 kg/m3 | mass density ([1]; a1 = 0.0026): 997.92 ± 0.29 kg/m3 | mass density ([1]; a1 = 0.0053): 998.93 ± 0.28 kg/m3 | mass density ([1]; a1 = 0.0101): 1000.34 ± 0.28 kg/m3 | mass density ([1]; a1 = 0.0134): 1001.42 ± 0.29 kg/m3 | mass density ([1]; a1 = 0.0157): 1002.16 ± 0.29 kg/m3 | mass density ([1]; a1 = 0.0168): 1002.5 ± 0.29 kg/m3

Compound: NCC(=O)O [2-aminoacetic acid] + O
mass density ([1]; a1 = 0.1091): 1039.02 ± 0.39 kg/m3 | mass density ([1]; a1 = 0.1535): 1053.89 ± 0.42 kg/m3 | mass density ([1]; a1 = 0.1933): 1065.41 ± 0.46 kg/m3 | mass density ([1]; a1 = 0.2231): 1075.18 ± 0.48 kg/m3 | mass density ([1]; a1 = 0.239): 1079.4 ± 0.49 kg/m3 | mass density ([1]; a1 = 0.244): 1080.36 ± 0.5 kg/m3 | mass density ([1]; a1 = 0.2509): 1082.99 ± 0.5 kg/m3

Compound: [Br-].[K+] [potassium bromide] + O
mass density ([2]; c1 = 1): 1080.52 ± 0.42 kg/m3 | mass density ([2]; c1 = 2): 1162.26 ± 0.63 kg/m3 | mass density ([2]; c1 = 4): 1323.4 ± 1.1 kg/m3

Compound: [Cl-].[K+] [potassium chloride] + O
mass density ([2]; c1 = 1): 1042.84 ± 0.32 kg/m3 | mass density ([2]; c1 = 2): 1082.33 ± 0.42 kg/m3 | mass density ([2]; c1 = 4): 1168.97 ± 0.63 kg/m3

Compound: CC(=O)[O-].[K+] [potassium ethanoate] + O
mass density ([2]; c1 = 1): 1043.58 ± 0.32 kg/m3 | mass density ([2]; c1 = 2): 1087.93 ± 0.43 kg/m3 | mass density ([2]; c1 = 4): 1170.95 ± 0.64 kg/m3

The remaining lines, values ahead:

mass density ([1]; a1 = 0.1001): 1035.94 ± 0.32 kg/m3 | mass density ([1]; a1 = 0.1553): 1053.34 ± 0.36 kg/m3 | mass density ([1]; a1 = 0.193): 1066.16 ± 0.4 kg/m3 | mass density ([1]; a1 = 0.2113): 1072.41 ± 0.41 kg/m3 | mass density ([1]; a1 = 0.2201): 1074.86 ± 0.42 kg/m3 | mass density ([1]; a1 = 0.2258): 1076.92 ± 0.42 kg/m3
Compound: O=C(O)CNCC(=O)O [N-(carboxymethyl)glycine] + O

mass density ([1]; a1 = 0.0099): 1001 ± 0.28 kg/m3 | mass density ([1]; a1 = 0.0192): 1004.77 ± 0.29 kg/m3 | mass density ([1]; a1 = 0.0355): 1011.02 ± 0.31 kg/m3 | mass density ([1]; a1 = 0.0452): 1014.88 ± 0.32 kg/m3 | mass density ([1]; a1 = 0.0544): 1018.36 ± 0.33 kg/m3 | mass density ([1]; a1 = 0.0624): 1021.44 ± 0.34 kg/m3 | mass density ([1]; a1 = 0.0641): 1022.05 ± 0.34 kg/m3
Compound: NCC(=O)NCC(=O)NCC(=O)O [glycylglycylglycine] + O

mass density ([1]; a1 = 0.0013): 997.73 ± 0.29 kg/m3 | mass density ([1]; a1 = 0.0023): 998.04 ± 0.29 kg/m3 | mass density ([1]; a1 = 0.0031): 998.3 ± 0.29 kg/m3 | mass density ([1]; a1 = 0.0033): 998.38 ± 0.29 kg/m3 | mass density ([1]; a1 = 0.0036): 998.49 ± 0.29 kg/m3 | mass density ([1]; a1 = 0.0038): 998.55 ± 0.28 kg/m3 | mass density ([1]; a1 = 0.0039): 998.59 ± 0.28 kg/m3
Compound: NCC(=O)NCC(=O)NCC(=O)NCC(=O)O [glycylglycylglycylglycine] + O
